The supplement of paper PMC7840683

System: HepaRG
Test: LDH release cytotoxicity, % of total lysis control; higher = more cytotoxic
Conditions: 48 h
Summary of the method: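 On collagen I-coated 96-well plates, single-lot HepaRG cells were exposed for 48 h, in duplicate, to eight-point half-log series of test chemicals beginning at 100 µM. The exposure medium was serum-free induction medium with 0.5% DMSO, and total lysis wells got 0.1% Triton X. Resorufin fluorescence from the CytoTox-ONE reaction, read on a Tecan Safire, reported LDH in 50 µL of spent medium. Percent cytotoxicity came from normalization to on-plate vehicle and total lysis controls, averaged over the duplicates.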

CN(C)c1ccccc1 [N,N-Dimethylaniline]
Conditions | LDH release cytotoxicity [%]
0.030516 µM | -0.91
0.0965 µM | -1.79
0.30516 µM | -1.99
0.965 µM | -2.41
3.0515979 µM | -1.849
9.65 µM | -1.69
30.516 µM | -2.11
96.5 µM | -0.103

CCCCCCCCCC[N+](C)(C)[O-] [N,N-Dimethyldecylamine oxide]
Conditions | LDH release cytotoxicity [%]
0.031623 µM | -1.68
0.1 µM | -2.43
0.316228 µM | -2.73
1 µM | -2
3.16228 µM | -2.26
10 µM | -2.07
31.6228 µM | -0.853
100 µM | 1.25

CN(C)C=O [N,N-Dimethylformamide]
Conditions | LDH release cytotoxicity [%]
0.03162 µM | -0.983
0.1 µM | -2.55
0.3162278 µM | -1.61
1 µM | -2.12
3.16228 µM | -2.02
10 µM | -1.22
31.6228 µM | -0.581
100 µM | 0.434

CCCCCCCCN(C)C [N,N-Dimethyloctylamine]
Conditions | LDH release cytotoxicity [%]
0.031939 µM | -1.23
0.101 µM | -0.78
0.31939 µM | -2.01
1.01 µM | -1.97
3.1939004 µM | -1.09
10.1 µM | -1.35
31.939 µM | -0.557
101 µM | 2.22

CCNc1cccc(C)c1 [N-Ethyl-3-methylaniline]
Conditions | LDH release cytotoxicity [%]
0.03162 µM | -1.25
0.1 µM | -0.734
0.3162278 µM | -1.13
1 µM | -0.866
3.16228 µM | -0.912
10 µM | -0.509
31.6228 µM | -0.424
100 µM | 1.66

CCNc1ccccc1 [N-Ethylaniline]
Conditions | LDH release cytotoxicity [%]
0.03162 µM | -1.05
0.1 µM | -1.82
0.3162278 µM | -0.782
1 µM | -2.09
3.16228 µM | -0.812
10 µM | -0.444
31.6228 µM | -0.781
100 µM | 0.942

CCNS(=O)(=O)C(F)(F)C(F)(F)C(F)(F)C(F)(F)C(F)(F)C(F)(F)C(F)(F)C(F)(F)F [N-Ethylperfluorooctanesulfonamide]
Conditions | LDH release cytotoxicity [%]
0.03162 µM | -0.318
0.1 µM | -0.363
0.3162278 µM | -1.47
1 µM | -0.894
3.16228 µM | -1.27
10 µM | -0.5
31.6228 µM | 0.958
100 µM | 2.37

CN1CCCC1=O [N-Methyl-2-pyrrolidone]
Conditions | LDH release cytotoxicity [%]
0.03162 µM | -2.92
0.1 µM | -3.16
0.3162278 µM | -2.9
1 µM | -2.75
3.16228 µM | -1.74
10 µM | -1.93
31.6228 µM | -2.93
100 µM | 7.04

CNC(C)=O [N-Methylacetamide]
Conditions | LDH release cytotoxicity [%]
0.03162 µM | -1.43
0.1 µM | -0.843
0.3162278 µM | -1.8
1 µM | -2.12
3.16228 µM | -2.26
10 µM | -2.1
31.6228 µM | -2.47
100 µM | 34

CCCCCCCCN(C)CCCCCCCC [N-Methyldioctylamine]
Conditions | LDH release cytotoxicity [%]
0.03162 µM | -0.874
0.1 µM | -1.29
0.3162278 µM | -1.43
1 µM | -1.23
3.16228 µM | -0.708
10 µM | -1.14
31.6228 µM | -0.369
100 µM | 0.33

CCCN(CCC)N=O [N-Nitrosodi-n-propylamine]
Conditions | LDH release cytotoxicity [%]
0.03162 µM | 0.0788
0.1 µM | -0.576
0.3162278 µM | -1.11
1 µM | -2.21
3.16228 µM | -1.474
10 µM | -1.09
31.6228 µM | -1.53
100 µM | 0.635

CCCCN(CCCC)N=O [N-Nitrosodibutylamine]
Conditions | LDH release cytotoxicity [%]
0.03162 µM | -1.09
0.1 µM | -1.36
0.3162278 µM | -1.56
1 µM | -2.27
3.16228 µM | -1.56
10 µM | -1.2
31.6228 µM | -1.12
100 µM | 0.0939

CCN(CC)N=O [N-Nitrosodiethylamine]
Conditions | LDH release cytotoxicity [%]
0.03162 µM | -0.893
0.1 µM | -0.536
0.3162278 µM | -0.901
1 µM | -0.963
3.16228 µM | -0.649
10 µM | -1.08
31.6228 µM | 0.447
100 µM | 0.842

CN(C)N=O [N-Nitrosodimethylamine]
Conditions | LDH release cytotoxicity [%]
0.02893 µM | 0.0505
0.0915 µM | -1.57
0.289348 µM | -0.817
0.915 µM | -1.29
2.89348 µM | -2.32
9.15 µM | -0.967
28.9348 µM | -0.682
91.5 µM | 0.3

O=NN(c1ccccc1)c1ccccc1 [N-Nitrosodiphenylamine]
Conditions | LDH release cytotoxicity [%]
0.03162 µM | -1.74
0.1 µM | -0.497
0.3162278 µM | -1.57
1 µM | -1.63
3.16228 µM | -0.54
10 µM | -0.535
31.6228 µM | 1.3
100 µM | 15.9

Nc1ccc(Nc2ccccc2)cc1 [N-Phenyl-1,4-benzenediamine]
Conditions | LDH release cytotoxicity [%]
0.03162 µM | -1.18
0.1 µM | -0.818
0.3162278 µM | -1.06
1 µM | -0.838
3.16228 µM | -0.438
10 µM | -0.107
31.6228 µM | 1.04
100 µM | 3.97

C=CN1CCCC1=O [N-Vinyl-2-pyrrolidone]
Conditions | LDH release cytotoxicity [%]
0.01581 µM | -1.31
0.05 µM | -2.25
0.1581139 µM | -2.68
0.5 µM | -2.71
1.5811388 µM | -2.96
5 µM | -2.54
15.8114 µM | -1.96
50 µM | -0.521

COP(=O)(OC)OC(Br)C(Cl)(Cl)Br (stereo not drawn) [Naled]
Conditions | LDH release cytotoxicity [%]
0.03162 µM | -2.18
0.1 µM | -1.58
0.3162278 µM | -1.53
1 µM | -2.25
3.16228 µM | -0.95
10 µM | -1.19
31.6228 µM | -0.943
100 µM | -0.896

c1ccc2ccccc2c1 [Naphthalene]
Conditions | LDH release cytotoxicity [%]
0.03162 µM | -0.307
0.1 µM | -1.13
0.3162278 µM | -0.248
1 µM | -0.532
3.16228 µM | 0.237
10 µM | 1.23
31.6228 µM | 0.531
100 µM | 2.74

CCN(CC)C(=O)C(C)Oc1cccc2ccccc12 (stereo not drawn) [Napropamide]
Conditions | LDH release cytotoxicity [%]
0.03162 µM | -0.242
0.1 µM | -0.853
0.3162278 µM | -1.37
1 µM | -0.226
3.16228 µM | -1.59
10 µM | -0.144
31.6228 µM | 0.0468
100 µM | 1.05

COc1ccc(S(=O)(=O)N2C(=O)C(c3ccccc3OC)(N3CC(O)CC3C(=O)N(C)C)c3cc(Cl)ccc32)c(OC)c1 (stereo not drawn) [Nelivaptan]
Conditions | LDH release cytotoxicity [%]
0.03162 µM | -0.817
0.1 µM | 0.214
0.3162278 µM | 0.146
1 µM | -0.447
3.16228 µM | -0.164
10 µM | 0.998
31.6228 µM | -0.141
100 µM | -0.056
